In patent publication US20240308968A1, “FUNGICIDAL SUBSTITUTED HETEROCYCLES” (FMC Corporation, priority 2021, published 2024):

Columns and labels:
Phakopsora pachyrhizi = test: Test D: preventive spray on soybean seedlings, Asian soybean rust disease rating; assay type: in vivo; settings: 50 ppm, 100 = 100% disease control, 0 = no control; for pest or weed control at 50 ppm: Phakopsora pachyrhizi, 216 h
How it was run: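 Compounds in acetone/water (50/50) with 50–250 ppm PEG400 sprayed to run-off on soybean seedlings; inoculated next day with P. pachyrhizi spores, held 24 h saturated at 22° C, then 8 days at 22° C before visual disease rating.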

Zymoseptoria tritici = test: Test A: preventive spray on wheat seedlings, wheat leaf blotch disease rating; assay type: in vivo; settings: 50 ppm, 100 = 100% disease control, 0 = no control; for pest or weed control at 50 ppm: Zymoseptoria tritici, 456 h
How it was run: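 Compounds in acetone/water (50/50) with 50–250 ppm PEG400, sprayed to run-off on wheat seedlings. Inoculated next day with Z. tritici spores, 48 h saturated atmosphere at 24 °C, then 17 days at 20 °C before disease rating.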

Botrytis cinerea = test: Test E: preventive spray on tomato seedlings, tomato Botrytis disease rating; assay type: in vivo; settings: 50 ppm, 100 = 100% disease control, 0 = no control; for pest or weed control at 50 ppm: Botrytis cinerea, 120 h
How it was run: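 Tomato seedlings sprayed to run-off with compound suspended in acetone/water with PEG400 surfactant, then inoculated next day with Botrytis cinerea spores. Held 48 h saturated at 20 °C, then 3 days at 24 °C; disease rated visually, 0 to 100% control relative to controls.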

[1] = system: Puccinia recondita f. sp. Tritici; test: Test B: preventive spray on wheat seedlings, wheat leaf rust disease rating; assay type: in vivo; settings: 50 ppm, 100 = 100% disease control, 0 = no control; for pest or weed control at 50 ppm: Puccinia recondita, 192 h
How it was run: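 Compounds in acetone/water (50/50) with 50-250 ppm PEG400 sprayed to run-off on wheat seedlings; inoculated with P. recondita spores next day. Held 24 h saturated at 20° C., then 7 days in growth chamber at 20° C. before rating; 100 = full control, 0 = none versus controls.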

Alternaria solani = test: Test F: preventive spray on tomato seedlings, tomato early blight disease rating; assay type: in vivo; settings: 50 ppm, 100 = 100% disease control, 0 = no control; for pest or weed control at 50 ppm: Alternaria solani, 120 h
How it was run: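 Tomato seedlings were sprayed to run-off with compound suspensions in ppm (acetone/water with PEG400 surfactant) and inoculated with Alternaria solani spores the next day. Plants were held 48 h saturated at 27 °C, then 3 days at 20 °C. Disease was rated visually, with 100 as full control and 0 as none, relative to controls.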

[2] = system: Blumeria graminis f. sp. Tritici; test: Test C: preventive spray on wheat seedlings, wheat powdery mildew disease rating; assay type: in vivo; settings: 50 ppm, 100 = 100% disease control, 0 = no control; for pest or weed control at 50 ppm: Blumeria graminis, 192 h
How it was run: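 Wheat seedlings sprayed to run-off with test suspension (acetone 3% dissolution, then acetone/water 50/50 with 50–250 ppm PEG400), inoculated next day with Blumeria graminis spore dust. Held 8 days at 20° C in growth chamber, then visually rated (100 = full control, 0 = none, relative to controls).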

SMILES | melting point [°C] | pest or weed control at 50 ppm (Phakopsora pachyrhizi) [%] | pest or weed control at 50 ppm (Zymoseptoria tritici) [%] | pest or weed control at 50 ppm (Botrytis cinerea) [%] | pest or weed control at 50 ppm [1] [%] | pest or weed control at 50 ppm (Alternaria solani) [%] | pest or weed control at 50 ppm [2] [%] | Test D disease control rating (Phakopsora pachyrhizi) [%] | Test A disease control rating (Zymoseptoria tritici) [%] | Test E disease control rating (Botrytis cinerea) [%] | Test B disease control rating [1] [%] | Test F disease control rating (Alternaria solani) [%] | Test C disease control rating [2] [%]
COc1ccc(Cl)c(-n2nc(Cl)c(=O)c(Br)c2-c2ccc(F)cc2Cl)c1 [Compound 134] | – | – | – | – | – | – | – | 100 | 100 | 99 | 100 | 99 | 86
COc1ccc(Cl)c(-n2nc(NC(C)=O)c(=O)cc2-c2ccc(F)cc2Cl)c1 [Compound 135] | – | – | – | – | – | – | – | 0 | 41 | 94 | 89 | 0 | 0
COc1ccc(Cl)c(-n2nc(Br)c(=O)cc2-c2ccc(F)cc2Cl)c1 [Compound 136] | – | – | – | – | – | – | – | 0 | 82 | 99 | 99 | 0 | 68
COc1cc(OC)cc(-c2cc(C#N)c(=O)n(N)c2-c2c(F)cc(F)cc2F)c1 [Compound 153] | – | – | – | – | – | – | – | 0 | 0 | 0 | 80 | 0 | 0
COc1ccc(Cl)c(-c2cc(C#N)c(=O)n(C)c2-c2ccc(F)cc2Cl)c1 [Compound 154] | – | – | – | – | – | – | – | 59 | 100 | 98 | 98 | 0 | 35
CCn1c(-c2ccc(F)cc2Cl)c(-c2cc(OC)cc(OC)c2)cc(C#N)c1=O [Compound 155] | – | – | – | – | – | – | – | 0 | 8 | 92 | 89 | 0 | 0
COc1cc(OC)cc(-c2cc(C#N)c(=O)n(C)c2-c2ccc(F)cc2Cl)c1 [Compound 158] | – | – | – | – | – | – | – | 0 | 0 | 40 | 68 | 0 | 0
CCn1c(-c2ccc(F)cc2Cl)c(-c2cc(OC)ccc2Cl)cc(C#N)c1=O [Compound 159] | – | – | – | – | – | – | – | 77 | 100 | 99 | 100 | 94 | 27

More lines, main results first:

melting point [°C] | SMILES | pest or weed control at 50 ppm (Phakopsora pachyrhizi) [%] | pest or weed control at 50 ppm (Zymoseptoria tritici) [%] | pest or weed control at 50 ppm (Botrytis cinerea) [%] | pest or weed control at 50 ppm [1] [%] | pest or weed control at 50 ppm (Alternaria solani) [%] | pest or weed control at 50 ppm [2] [%] | Test D disease control rating (Phakopsora pachyrhizi) [%] | Test A disease control rating (Zymoseptoria tritici) [%] | Test E disease control rating (Botrytis cinerea) [%] | Test B disease control rating [1] [%] | Test F disease control rating (Alternaria solani) [%] | Test C disease control rating [2] [%]
124 to 127 | COc1cc(OC)cc(-n2nc(C)c(=O)c(C)c2-c2ccc(F)cc2F)c1 [Compound 29, 6-(2,4-difluorophenyl)-1-(3,5-dimethoxyphenyl)-3,5-dimethyl-4(1H)-pyridazinone] | 99 | 100 | 98 | 100 | 100 | 100 | – | – | – | – | – | –
161 to 164 | COc1cc(OC)c(Cl)c(-c2noc(=O)c(C)c2-c2ccc(F)cc2Cl)c1 [Compound 64, 3-(2-chloro-3,5-dimethoxyphenyl)-4-(2-chloro-4-fluorophenyl)-5-methyl-6H-1,2-oxazin-6-one] | 99 | 97 | 91 | 100 | 99 | 98 | – | – | – | – | – | –
180 to 183 | COc1cc(OC)cc(-c2cc(C#N)c(=O)n(C)c2-c2c(F)cc(F)cc2F)c1 [Compound 67, 1,2-dihydro-5-(3,5-dimethoxyphenyl)-1-methyl-2-oxo-6-(2,4,6-trifluorophenyl)-3-pyridinecarbonitrile] | 92 | 100 | 98 | 100 | 98 | 84 | – | – | – | – | – | –
159 to 162 | COc1cc(OC)c(Cl)c(-c2cc(C#N)c(=O)n(C)c2-c2c(F)cc(F)cc2F)c1 [Compound 68, 5-(2-chloro-3,5-dimethoxyphenyl)-1,2-dihydro-1-methyl-2-oxo-6-(2,4,6-trifluorophenyl)-3-pyridinecarbonitrile] | 100 | 100 | 93 | 100 | 99 | 99 | – | – | – | – | – | –
185 to 187 | CCn1c(-c2c(F)cc(F)cc2F)c(-c2cc(OC)cc(OC)c2)cc(C#N)c1=O [Compound 69, 1,2-dihydro-5-(3,5-dimethoxyphenyl)-1-ethyl-2-oxo-6-(2,4,6-trifluorophenyl)-3-pyridinecarbonitrile] | 86 | 100 | 93 | 100 | 99 | 99 | – | – | – | – | – | –
171 to 173 | CCn1c(-c2c(F)cc(F)cc2F)c(-c2cc(OC)cc(OC)c2Cl)cc(C#N)c1=O [Compound 70, 5-(2-chloro-3,5-dimethoxyphenyl)-1,2-dihydro-1-ethyl-2-oxo-6-(2,4,6-trifluorophenyl)-3-pyridinecarbonitrile] | 100 | 100 | 96 | 100 | 98 | 99 | – | – | – | – | – | –
192 to 195 | COc1cc(OC)c(Cl)c(-n2nc(Cl)c(=O)c(C)c2-c2ccc(F)cc2Cl)c1 [Compound 92, 3-chloro-6-(2-chloro-4-fluorophenyl)-1-(2-chloro-3,5-dimethoxyphenyl)-5-methyl-4(1H)-pyridazinone] | 100 | 100 | 96 | 100 | 99 | 99 | – | – | – | – | – | –
191 to 194 | COc1cc(OC)c(Cl)c(-n2nc(Br)c(=O)c(C)c2-c2ccc(F)cc2Cl)c1 [Compound 94, 3-bromo-6-(2-chloro-4-fluorophenyl)-1-(2-chloro-3,5-dimethoxyphenyl)-5-methyl-4(1H)-pyridazinone] | 100 | 100 | 98 | 100 | 100 | 100 | – | – | – | – | – | –
106 to 108 | COc1ccc(Cl)c(-c2cc(C)nc(C)c2-c2ccc(F)cc2Cl)c1 [Compound 138, 3-(2-chloro-4-fluorophenyl)-4-(2-chloro-5-methoxyphenyl)-2,6-dimethylpyridine] | – | – | – | – | – | – | – | – | – | – | – | –
